For four compounds, Ki and half-life results are on record in ChEMBL document CHEMBL3421604, “Treating pain with somatostatin receptor subtype 4 agonists” (ACS Med Chem Lett, 2015).

The target of data set [1] is Somatostatin receptor type 2 (Homo sapiens, UniProt P30874). The experiment in a line: Displacement of [3-125l-Tyr]-somatostatin-(1 -14) from human recombinant somatostatin 2 receptor expressed in CHO cell membranes incubated for 180 mins.
Data set [2] has as its target Somatostatin receptor type 3 (Homo sapiens, UniProt P32745). The experiment in a line: Displacement of [3-125l-Tyr]-somatostatin-(1 -14) from human recombinant somatostatin 3 receptor expressed in CHO cell membranes incubated for 180 mins.
The target of data set [3] is Somatostatin receptor type 5 (Homo sapiens, UniProt P35346). The experiment in a line: Displacement of [3-125l-Tyr]-somatostatin-(1 -14) from human recombinant somatostatin 5 receptor expressed in CHO cell membranes incubated for 180 mins.
Sequence of Somatostatin receptor type 5 (P35346 whole entry): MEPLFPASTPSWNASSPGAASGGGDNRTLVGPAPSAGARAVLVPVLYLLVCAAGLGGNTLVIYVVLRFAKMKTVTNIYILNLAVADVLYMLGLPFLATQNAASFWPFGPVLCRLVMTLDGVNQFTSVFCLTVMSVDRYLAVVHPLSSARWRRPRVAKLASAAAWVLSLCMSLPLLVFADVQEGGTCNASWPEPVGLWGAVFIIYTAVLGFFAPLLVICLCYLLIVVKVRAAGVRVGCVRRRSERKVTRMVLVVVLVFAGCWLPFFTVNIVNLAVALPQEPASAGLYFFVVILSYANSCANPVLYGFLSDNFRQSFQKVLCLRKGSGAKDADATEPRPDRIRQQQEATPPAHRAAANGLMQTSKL
The nature of data set [4]: Metabolic stability in pooled human liver microsomes assessed as half life at 0.1 uM at 37 degC in presence of NADPH by LC-MS/MS method. The data set is classed as ADME.
Data set [5] has as its target Somatostatin receptor type 1 (Homo sapiens, UniProt P30872). The experiment in a line: Displacement of [3-125l-Tyr]-somatostatin-(1 -14) from human recombinant somatostatin 1 receptor expressed in CHO cell membranes incubated for 180 mins.

Sequence of Somatostatin receptor type 3 (P32745 whole entry): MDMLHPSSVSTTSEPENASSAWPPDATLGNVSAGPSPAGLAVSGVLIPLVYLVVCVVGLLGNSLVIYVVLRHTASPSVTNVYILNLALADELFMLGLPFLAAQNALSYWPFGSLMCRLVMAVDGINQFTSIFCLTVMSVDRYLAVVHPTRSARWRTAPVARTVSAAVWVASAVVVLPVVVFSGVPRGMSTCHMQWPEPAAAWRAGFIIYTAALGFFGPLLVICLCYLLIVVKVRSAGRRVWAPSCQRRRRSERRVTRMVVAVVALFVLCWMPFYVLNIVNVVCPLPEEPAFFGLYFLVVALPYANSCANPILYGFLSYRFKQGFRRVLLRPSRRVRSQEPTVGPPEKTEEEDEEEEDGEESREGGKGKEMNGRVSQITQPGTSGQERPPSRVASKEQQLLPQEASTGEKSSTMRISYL
Sequence of Somatostatin receptor type 2 (P30874 whole entry): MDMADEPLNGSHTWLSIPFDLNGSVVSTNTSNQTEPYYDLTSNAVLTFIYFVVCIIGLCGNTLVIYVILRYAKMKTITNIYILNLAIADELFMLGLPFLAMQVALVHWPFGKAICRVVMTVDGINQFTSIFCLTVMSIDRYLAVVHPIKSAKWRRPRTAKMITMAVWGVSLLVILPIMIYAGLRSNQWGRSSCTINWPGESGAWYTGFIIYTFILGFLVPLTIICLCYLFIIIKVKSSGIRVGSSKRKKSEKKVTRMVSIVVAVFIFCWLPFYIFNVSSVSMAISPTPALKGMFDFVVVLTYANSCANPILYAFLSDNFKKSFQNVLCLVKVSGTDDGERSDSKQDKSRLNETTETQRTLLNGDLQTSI
Sequence of Somatostatin receptor type 1 (P30872 whole entry): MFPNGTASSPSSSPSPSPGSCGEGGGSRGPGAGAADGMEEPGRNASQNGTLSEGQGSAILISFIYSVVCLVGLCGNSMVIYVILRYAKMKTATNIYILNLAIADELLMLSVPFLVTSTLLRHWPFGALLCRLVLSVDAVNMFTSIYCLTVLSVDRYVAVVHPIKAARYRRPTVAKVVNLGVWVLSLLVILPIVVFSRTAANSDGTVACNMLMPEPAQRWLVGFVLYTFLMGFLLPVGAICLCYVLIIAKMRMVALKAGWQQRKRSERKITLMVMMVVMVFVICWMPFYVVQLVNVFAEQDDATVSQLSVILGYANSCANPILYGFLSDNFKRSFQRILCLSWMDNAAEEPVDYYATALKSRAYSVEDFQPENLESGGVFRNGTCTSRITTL

As to `Cc1nc(C(C)(C)NC(=O)[C@H]2[C@@H]3CNC[C@@H]32)c2ccccc2n1`, the Ki in data set [1] is greater than 9.63 µM; in data set [2] it was greater than 8.71 µM; in data set [3], greater than 9.86 µM. The half-life at 0.1 µM in data set [4] was greater than 130 min.
For the compound `Cc1cc2ccccc2c(C(C)(C)NC(=O)[C@H]2[C@@H]3CNC[C@@H]32)n1`, the Ki in data set [1] is greater than 9.59 µM; in data set [3] it was greater than 9.85 µM. The half-life at 0.1 µM in data set [4] is greater than 130 min.
Take `Cn1nc(C(C)(C)NC(=O)[C@H]2[C@@H]3CNC[C@@H]32)c2ccccc21`: the Ki in data set [1] was greater than 9.6 µM; in data set [2], greater than 8.62 µM; in data set [3], greater than 9.86 µM. In addition, in data set [4], the half-life at 0.1 µM was greater than 130 min.
With `CC(C)(NC(=O)[C@H]1[C@@H]2CNC[C@@H]21)c1noc2c(F)cccc12`, the Ki in data set [5] is greater than 9.09 µM; in data set [1] it was greater than 9.6 µM; in data set [2], greater than 8.6 µM; in data set [3] it was greater than 9.85 µM. For the same compound, the half-life at 0.1 µM in data set [4] was greater than 130 min.
